This assay concerns the target T1, polymerase of hepatitis B virus (Hepatitis B virus genotype D subtype ayw, UniProt P03156).
T1 construct: the Dane particles were isolated from HBV-infected human blood; from tissue; host or cells: Dane particles (HBV virions) isolated from HBV-infected human blood
The experiment in a line: in vitro endogenous DNA polymerase assay (Dane particles, radioactive nucleotide incorporation into viral DNA). It counts as biochemical. The conditions noted are these: for inhibition at 0.01 µg/mL: 0.01 μg/ml; for inhibition at 0.01 µg/mL / inhibition at 0.1 µg/mL: 37° C., 2 hours, Dane particle DNA polymerase; for inhibition at 0.1 µg/mL: 0.1 μg/ml; for inhibition of the polymerase of hepatitis B virus (in words): according to the endogenous DNA polymerase procedure. How it is done:
Ten microliters of Dane particles were incubated at 37° C. for 2 hours in 100 μl containing 0.5% NP40, 0.07% BME, 66 mM Tris HCl (pH 7.6) 27 mM MgCl2, 0.40 mM NH4 Cl, 0.3 mM dATP, dGTP, and dTTP and 4 picomoles α^32 P-dCTP. The appropriate tubes also contained either 0.1 μg/ml or 0.01 μg/ml of the rifamycin derivatives (a), (b), (c), (d), or (e). The quantity of incorporation of radioactive nucleotides into viral DNA was determined by trichloroacetic acid precipitation as described by Landers et al., J. Virol. 23: 368-376, 1977. The control DNA polymerase reaction contained more than 20,000 cpm.

SMILES strings stand for the structures.

T1 sequence (P03156 whole entry): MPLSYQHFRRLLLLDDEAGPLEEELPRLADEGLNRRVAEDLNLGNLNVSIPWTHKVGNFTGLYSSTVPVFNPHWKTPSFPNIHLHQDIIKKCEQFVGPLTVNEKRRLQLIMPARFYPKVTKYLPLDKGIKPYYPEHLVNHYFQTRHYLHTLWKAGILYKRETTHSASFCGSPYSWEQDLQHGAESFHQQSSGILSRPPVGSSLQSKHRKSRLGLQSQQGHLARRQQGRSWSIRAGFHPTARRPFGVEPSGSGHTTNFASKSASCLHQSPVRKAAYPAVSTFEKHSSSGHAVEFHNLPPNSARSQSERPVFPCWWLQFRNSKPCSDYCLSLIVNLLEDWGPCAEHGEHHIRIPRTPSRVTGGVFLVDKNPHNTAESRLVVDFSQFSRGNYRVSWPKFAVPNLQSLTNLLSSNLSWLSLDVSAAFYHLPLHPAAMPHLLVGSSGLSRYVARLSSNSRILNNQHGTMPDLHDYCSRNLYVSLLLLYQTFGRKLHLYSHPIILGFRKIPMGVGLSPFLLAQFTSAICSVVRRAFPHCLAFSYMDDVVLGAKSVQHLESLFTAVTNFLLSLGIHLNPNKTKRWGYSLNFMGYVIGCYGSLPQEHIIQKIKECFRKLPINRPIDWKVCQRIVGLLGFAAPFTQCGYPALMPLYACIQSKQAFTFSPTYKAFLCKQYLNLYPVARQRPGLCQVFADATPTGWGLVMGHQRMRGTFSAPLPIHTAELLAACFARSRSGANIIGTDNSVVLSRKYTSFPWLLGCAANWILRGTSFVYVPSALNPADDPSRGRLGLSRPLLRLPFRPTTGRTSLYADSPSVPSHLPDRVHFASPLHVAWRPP

As for `CO[C@H]1/C=C/O[C@@]2(C)Oc3c(C)c(O)c4c(O)c(c(N)c(NS(=O)(=O)c5ccc(N)cc5)c4c3C2=O)NC(=O)/C(C)=C\C=C\[C@H](C)[C@H](O)[C@@H](C)[C@@H](O)[C@@H](C)[C@H](OC(C)=O)[C@@H]1C` [(b), 3-amino-4-deoxo-4-[(4-aminophenyl)sulfonyl]amino-rifamycin SV], the inhibition (in general, the share of the control response that was lost under treatment) at 0.01 µg/mL was determined as 10%; the inhibition at 0.1 µg/mL is 89%; the “inhibition of the polymerase of hepatitis B virus (in words)” value (shortened to “inhibition of the polymerase … (in words)”) is on record as “inhibit the polymerase of hepatitis B virus”.
Take `CCCCS(=O)(=O)Oc1c(C=NN2CCCCC2)c2c(O)c3c(O)c(C)c4c(c13)C(=O)[C@@](C)(O/C=C/[C@H](OC)[C@@H](C)[C@@H](OC(C)=O)[C@H](C)[C@H](O)[C@H](C)[C@@H](O)[C@@H](C)/C=C/C=C(/C)C(=O)N2)O4` [(c), 4-O-(n-butylsulfonyl)-3-[(1-piperidinylimino)methyl]-rifamycin SV]: the inhibition at 0.01 µg/mL turned out to be 8.3%, the inhibition at 0.1 µg/mL was 55.7% and the “inhibition of the polymerase … (in words)” value is reported as “inhibit the polymerase of hepatitis B virus”.
For `COC1C=COC2(C)Oc3c(C)c(O)c4c(O)c(c5c(c4c3C2=O)N(S(C)(=O)=O)C(C)N5)NC(=O)C(C)=CC=CC(C)C(O)C(C)C(O)C(C)C(OC(C)=O)C1C` (centres unmarked) [(f), 4-deoxo-N,3-ethylidenimino-4-(methylsulfonyl)amino rifamycin SV] the same measures were 23.8%, 84.6% and “inhibit the polymerase of hepatitis B virus”.
On to `CCCCS(=O)(=O)Oc1c(C=NN2CCOCC2)c2c(O)c3c(O)c(C)c4c(c13)C(=O)[C@@](C)(O/C=C/[C@H](OC)[C@@H](C)[C@@H](OC(C)=O)[C@H](C)[C@H](O)[C@H](C)[C@@H](O)[C@@H](C)/C=C/C=C(/C)C(=O)N2)O4` [(d), 4-O-(n-butylsulfonyl)-3-[(4-morpholinylimino)methyl]-rifamycin SV], for which the inhibition at 0.01 µg/mL amounted to 10.2%, the inhibition at 0.1 µg/mL came out at 92.5% and the “inhibition of the polymerase … (in words)” value was “inhibit the polymerase of hepatitis B virus”.
For `CO[C@H]1/C=C/O[C@@]2(C)Oc3c(C)c(O)c4c(O)c(c(C=NN(C)C)c(OS(=O)(=O)CCCc5ccccc5)c4c3C2=O)NC(=O)/C(C)=C\C=C\[C@H](C)[C@H](O)[C@@H](C)[C@@H](O)[C@@H](C)[C@H](OC(C)=O)[C@@H]1C` [(e), 3-[(dimethylhydrazono)methyl]-4-O-[(3-phenylpropyl)sulfonyl]-rifamycin SV] the same measures were 25.1%, 85.6% and “inhibit the polymerase of hepatitis B virus”.
Regarding `CO[C@H]1/C=C/O[C@@]2(C)Oc3c(C)c(O)c4c(c3C2=O)C(=N)C(N)=C(NC(=O)/C(C)=C\C=C\[C@H](C)[C@H](O)[C@@H](C)[C@@H](O)[C@@H](C)[C@H](OC(C)=O)[C@@H]1C)C4=O` [(a), 3-amino-4-deoxo-4-imino-rifamycin S], the inhibition at 0.01 µg/mL was 17.2% and the inhibition at 0.1 µg/mL came to 54.1%.

(Values after US4743619A, “Method of treating hepatitis” (American Home Products Corporation, priority 1986, dated 1988).)
